What was measured:
E. faecium LMGT 3104 = experiment: microbe, parasite or virus in culture; format: cell-based, Enterococcus faecium; conditions: Enterococcus faecium, LMGT3104, read-out: MIC, single antimicrobial
Protocol: Antimicrobial activity was measured using the AAMP assay (Wiegand et al., 2008, Nat. Protoc., Vol. 3(2), p 163-175).
Synergy testing was done with a microtiter plate checkerboard assay as previously described (Orhan et al., 2005, J. Clin. Microbiol., Vol. 43(1), p 140-143). Briefly, equal amounts of antimicrobial A were applied on microtiter plate 1 in wells A1-H1 and then diluted two-fold to wells 2-12. Similarly, equal amounts of antimicrobial B were applied on microtiter plate 2 in wells A1-A12 and diluted two-fold in wells B-H. Volumes of 50 μl of antimicrobial A from each well of microtiter plate 1 were transferred into microtiter plate 3, except for wells H1-H12. Similarly, the same volumes were transferred from microtiter plate 2 into plate 3, except for wells A1-A8. A 100 μl volume of 25 times diluted ON bacterial culture of MRSA was transferred into each well of plate 3. A 50 μl volume of pure broth was added into each well in lines H1-H12 and A1-A8 which were used to estimate MIC values of pure substances (blank).
Antimicrobial activity was measured using the AAMP assay as described in Example 2.
Synergy testing was performed as in Example 2.

[1] = test system: clinical S. aureus strains from leprosy-associated skin ulcers (biofilms); experiment: BOAT on clinical isolates; format: cell-based, Staphylococcus aureus; conditions: 14 clinical S. aureus isolates
Excerpt: Leprosy patients with plantar ulcers who were registered at LEPRA Society, BPHRC, Hyderabad, India during December 2018 through May 2019 (n=31) were enrolled into the study after obtaining an informed consent. The study protocol was approved by the Institutional Ethical Committee at LEPRA Society. A total of thirty-one wound swabs were collected using sterile pure viscose swab (Hi-media, Mumbai, India) and transported immediately for further processing to the microbiology laboratory. One swab was collected from each leprosy foot ulcer. Each swab was inoculated on Blood and McConkey agar and incubated at 37° C. overnight and the plates were examined for growth on the following day. Cultures were identified by colony morphology, Gram staining and other standard tests. […]
The BOAT assay was performed as described previously (Gronseth et al., 2017, Int. J. Pediatr. Otorhinolaryngol., Vol. 103, p 58-64) with some modifications. […] The results were then assessed by monitoring the development (or not) of red formazan (red colour), denoting the retention of metabolic activity by bacterial cells (Moussa et al., 2013, J. Mycol., Vol. 2013; Perez et al., 2010, Lett. Appl. Microbiol., Vol. 51, p 331-337). […] The amount of extracted dye, reflecting the degree of bacterial cell metabolic activity, was then quantified by spectrophotometric readings at 492 nm.

## C/C=C(\NC(=O)c1csc(-c2csc(-c3ccc4c(n3)-c3csc(n3)[C@H]([C@@H](C)O)NC(=O)c3csc(n3)[C@H](C(C)C)NC(=O)c3csc(n3)/C(=C/C)NC(=O)[C@H]([C@@H](C)O)NC(=O)c3csc-4n3)n2)n1)C(=O)NC[C@@H](C)O [MP1, micrococcin P1]
E. faecium LMGT 3104
  MIC: 2.5 µg/mL

B1: Garvicin KS: three-peptide leaderless bacteriocin (GarA, GarB, GarC; SEQ ID NO:6-8), peptides synthesized (peptide, listed as Lactococcus garvieae)
chain 1: MGAIIKAGAKIVGKGVLGGGASWLGWNVGEKIWK
chain 2: MGAIIKAGAKIIGKGLLGGAAGGATYGGLKKIFG
chain 3: MGAIIKAGAKIVGKGALTGGGVWLAEKLFGGK
[1]
  antimicrobial activity in BOAT on clinical isolates: showed antimicrobial activity against all the strains

— patent US20240041976A1, “COMPOSITION AND USE” (priority 2020, published 2024)
